Here are results for ten molecules from ChEMBL document CHEMBL1201862, “PubChem BioAssay data set” (2004).

The structures appear in SMILES notation.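 Dose response: 5 concentrations. Exposure: 48 h. Format: 96-well plates. Endpoint: linear interpolation; highest concentration if not reached. Here, GI50 denotes the concentration required for 50% inhibition of growth.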 The source made the active and inactive calls. Cut-off read from the data, not from the text of the source: active = GI50 up to about 1.1 µM and inactive = higher.

Some test systems named below: A549; COLO 205; DU-145; Hs-578T; LOX IMVI; MCF7; MDA-MB-231; MOLT-4; Malme-3M; NCI-H522; OVCAR-4; PC-3; RPMI-8226; RXF 393; SF-539; SK-MEL-5; SN12C; TK-10; UACC-62.
Holding throughout (assay): growth of human tumour cells (NCI), 48 h

Take `C=C1C(=O)OC2C3OC(C)(CCC(O)C3COC(C)=O)CC(OC(=O)/C(=C/C)COC(C)=O)C12` (stereo not given): the GI50 with A549 is 7.33 µM (inactive); with COLO 205 it was 0.082 µM (active); in the assay on DU-145 it was 0.778 µM (active); in the assay with Hs-578T it was 0.634 µM (active); in the assay with LOX IMVI, 0.163 µM (active); in the assay on MCF7, 0.128 µM (active). The GI50 is 0.53 µM (active) in the assay on MDA-MB-231; 0.0783 µM (active) in the assay on MOLT-4; 0.0242 µM (active) in the assay with Malme-3M; 0.0317 µM (active) with NCI-H522; 1.9 µM (inactive) with OVCAR-4; 1.48 µM (inactive) in the assay with PC-3. In addition, the GI50 with RPMI-8226 was 0.0698 µM (active); in the assay with RXF 393 it was 0.223 µM (active); in the assay on SF-539, 1.58 µM (inactive); in the assay on SK-MEL-5, 0.684 µM (active); in the assay on SN12C it was 0.738 µM (active); in the assay with TK-10, 0.165 µM (active). Besides, the GI50 in the assay on UACC-62 was 0.458 µM (active).

For the molecule `COCn1c(C)c(C)c2c(=O)oc(=O)[nH]c21`, the GI50 in the assay with A549, in the assay on COLO 205, with DU-145, with Hs-578T, in the assay on LOX IMVI and with MCF7 was > 100 µM (inactive) throughout. The GI50 in the assay with MDA-MB-231, in the assay with MOLT-4, with Malme-3M, with NCI-H522, in the assay with OVCAR-4 and with PC-3 was > 100 µM (inactive) throughout. For the same molecule, the GI50 with RPMI-8226, in the assay on RXF 393, with SF-539, with SK-MEL-5, in the assay on SN12C and in the assay with TK-10 was > 100 µM (inactive) throughout. Further, in the assay on UACC-62, the GI50 is > 100 µM (inactive).

`CCCCC1(N=[N+]=[N-])C(=O)C2C=CC=C3c4ccccc4N(C1=O)C32` (stereo not given): the GI50 was 19.5 µM (inactive) with A549; 18.5 µM (inactive) with COLO 205; 58.5 µM (inactive) in the assay on DU-145; 12.3 µM (inactive) in the assay with Hs-578T; 17.9 µM (inactive) with LOX IMVI; 17.1 µM (inactive) in the assay on MCF7. Moreover, the GI50 in the assay on MDA-MB-231 was 23.6 µM (inactive); with MOLT-4, 15.3 µM (inactive); in the assay with Malme-3M it was 23 µM (inactive); with NCI-H522 it was 13.6 µM (inactive); in the assay on OVCAR-4, 21.6 µM (inactive); in the assay with PC-3, 18.9 µM (inactive). Also, the GI50 was 17.7 µM (inactive) in the assay with RPMI-8226; 13.7 µM (inactive) in the assay on RXF 393; 20 µM (inactive) in the assay on SF-539; 16.4 µM (inactive) in the assay with SK-MEL-5; 30.1 µM (inactive) with SN12C; 16.4 µM (inactive) in the assay with TK-10. The GI50 with UACC-62 was 23.1 µM (inactive).

As to `NC(=S)N/N=C\CC(O)(C(F)(F)F)C(F)(F)F`, the GI50 in the assay on A549, in the assay on COLO 205, in the assay on DU-145, in the assay with Hs-578T, with LOX IMVI and with MCF7 was > 10 µM (inactive) each time. Further, the GI50 with MDA-MB-231, in the assay on MOLT-4, in the assay with Malme-3M, in the assay on NCI-H522, in the assay with OVCAR-4 and with PC-3 was > 10 µM (inactive) in each case. For the same molecule, the GI50 in the assay with RPMI-8226, in the assay on RXF 393, in the assay on SF-539, in the assay with SK-MEL-5, with SN12C and in the assay with TK-10 was > 10 µM (inactive) in each case. Further, the GI50 in the assay on UACC-62 is > 10 µM (inactive).

For the molecule `CN(CCC(=O)O)S(=O)(=O)c1ccccc1`, the GI50 in the assay with A549, with COLO 205, in the assay on DU-145, in the assay with Hs-578T, with LOX IMVI and in the assay with MCF7 was > 100 µM (inactive) throughout. Further, the GI50 in the assay with MDA-MB-231, in the assay with MOLT-4, with Malme-3M, in the assay on NCI-H522, in the assay with OVCAR-4 and in the assay with PC-3 was > 100 µM (inactive) in each case. For the same molecule, the GI50 in the assay with RPMI-8226, in the assay on RXF 393, in the assay on SF-539, in the assay on SK-MEL-5, with SN12C and with TK-10 was > 100 µM (inactive) each time. For the same molecule, the GI50 with UACC-62 was > 100 µM (inactive).

For `C=C[C@]1(C)C[C@@H](OC(=O)CO)[C@@]2(C)[C@H](C)CC[C@]3(CCC(=O)[C@H]32)[C@@H](C)[C@@H]1O`, the GI50 was > 100 µM (inactive) in the assay on A549; > 100 µM (inactive) in the assay on COLO 205; > 100 µM (inactive) with DU-145; > 53.1 µM (inactive) with Hs-578T; > 31.6 µM (inactive) in the assay on LOX IMVI; 21.5 µM (inactive) in the assay on MCF7. The GI50 in the assay on MDA-MB-231 is > 100 µM (inactive); in the assay on MOLT-4 it was 37.5 µM (inactive); with Malme-3M, 83.4 µM (inactive); with NCI-H522, 67.9 µM (inactive); in the assay on OVCAR-4, > 100 µM (inactive); in the assay on PC-3, > 55.2 µM (inactive). Besides, the GI50 with RPMI-8226 was 70.5 µM (inactive); in the assay with RXF 393, > 59 µM (inactive); with SF-539, > 100 µM (inactive); in the assay on SK-MEL-5, > 89.5 µM (inactive); in the assay on SN12C, > 100 µM (inactive); with TK-10, > 59.3 µM (inactive). Further, the GI50 in the assay with UACC-62 is 7.59 µM (inactive).

For `CCOC(=O)c1nc2c(nc1C(=O)OCC)C(=O)c1ccccc1C2=O`, the GI50 in the assay with A549 was 0.594 µM (active); in the assay with COLO 205 it was 1.82 µM (inactive); in the assay with DU-145, 0.828 µM (active); in the assay with Hs-578T, 0.236 µM (active); with LOX IMVI, 0.353 µM (active); in the assay on MCF7, 0.34 µM (active). In addition, the GI50 was 2.16 µM (inactive) in the assay with MDA-MB-231; 1.71 µM (inactive) with MOLT-4; 0.174 µM (active) in the assay on Malme-3M; 0.671 µM (active) with NCI-H522; 0.637 µM (active) in the assay on OVCAR-4; 2.9 µM (inactive) with PC-3. Moreover, the GI50 with RPMI-8226 is 0.753 µM (active); in the assay on RXF 393 it was 0.649 µM (active); in the assay with SF-539 it was 0.473 µM (active); in the assay on SK-MEL-5, 0.407 µM (active); in the assay on SN12C, 0.201 µM (active); in the assay on TK-10, 2.75 µM (inactive). Moreover, the GI50 with UACC-62 is 0.288 µM (active).

On to `Cn1c2ccccc2c2c3c(c4c5ccccc5n(C5OC(CO)C(O)C(O)C5O)c4c21)C(=O)OC3=O` (stereo not given), for which the GI50 in the assay on A549, in the assay on COLO 205, in the assay on DU-145, in the assay on Hs-578T, in the assay with LOX IMVI and in the assay on MCF7 was > 100 µM (inactive) in each case. In addition, the GI50 with MDA-MB-231, in the assay with MOLT-4, with Malme-3M, in the assay with NCI-H522, with OVCAR-4 and in the assay on PC-3 was > 100 µM (inactive) each time. Further, the GI50 with RPMI-8226, in the assay with RXF 393, in the assay with SF-539, in the assay with SK-MEL-5, with SN12C and with TK-10 was > 100 µM (inactive) each time. The GI50 in the assay with UACC-62 is > 100 µM (inactive).

For `CCCCC1=CC1(C#N)[N+](=O)[O-]` (stereo not given), the GI50 was > 100 µM (inactive) in the assay on A549; > 100 µM (inactive) in the assay with COLO 205; > 100 µM (inactive) in the assay with DU-145; > 100 µM (inactive) with Hs-578T; 31.3 µM (inactive) with LOX IMVI; 45.4 µM (inactive) in the assay on MCF7. The GI50 with MDA-MB-231 was > 100 µM (inactive); in the assay on MOLT-4 it was 23.3 µM (inactive); with Malme-3M, 53.6 µM (inactive); in the assay on NCI-H522, 45.6 µM (inactive); with OVCAR-4, > 100 µM (inactive); with PC-3, > 100 µM (inactive). The GI50 in the assay with RPMI-8226 is 25.1 µM (inactive); in the assay on RXF 393, > 100 µM (inactive); with SF-539 it was > 100 µM (inactive); in the assay with SK-MEL-5 it was 36.5 µM (inactive); with SN12C it was 90.8 µM (inactive); in the assay with TK-10, > 100 µM (inactive). The GI50 with UACC-62 was 60.3 µM (inactive).

Take `COc1cc(OCc2ccc3oc(=O)c(-c4ccccc4)nc3c2)cc(OC)c1OC`: the GI50 in the assay with A549, in the assay on COLO 205, in the assay with DU-145, in the assay with Hs-578T, in the assay on LOX IMVI and in the assay on MCF7 was > 100 µM (inactive) throughout. The GI50 in the assay with MDA-MB-231, in the assay on MOLT-4, with Malme-3M, with NCI-H522, with OVCAR-4 and in the assay on PC-3 was > 100 µM (inactive) each time. Moreover, the GI50 with RPMI-8226, in the assay on RXF 393, with SF-539, in the assay with SK-MEL-5, in the assay with SN12C and in the assay on TK-10 was > 100 µM (inactive) in each case. In addition, in the assay on UACC-62, the GI50 is > 100 µM (inactive).
